Earlier results on 2 compounds are cited in patent US20210330614A1, “PROCESS FOR MANUFACTURING PHENYLEPHRINE RESINATE PARTICLES; PHENYLEPHRINE RESINATE PARTICLES; AND USE OF PHENYLEPHRINE RESINATE PARTICLES IN PHARMACEUTICAL FORMULATIONS” (Johnson & Johnson Consumer Inc., priority 2014, published 2021).

The conditions of data set [1]: 30 mg dose administered orally over eight hours.
The conditions of data set [2]: therapeutic dose.

On to `CNC[C@H](O)c1cccc(O)c1.Cl` [phenylephrine, (R)-1-(3-hydroxyphenyl)-2-methylaminoethanol], for which, in data set [1], the “metabolized to m-hydroxy-phenylglycol-sulfate, % of the dose” value was 6%; the “metabolized to m-hydroxymandelic acid, % of the dose” value is recorded as 30%; the “metabolized to phenylephrine-glucuronide, % of the dose” value is listed as 12%; the “metabolized to phenylephrine-sulfate, % of the dose” value is recorded as 47%.
For the compound `CC(=O)Nc1ccc(O)cc1` [acetaminophen, Acetaminophen], the “excreted unchanged in the urine, % of dose” value in data set [2] is “Less than 9%”.
